“Also recorded” adds a separate entry of the source.
Assays:
[1] = tested on: c-Fos protein in rat medial prefrontal cortex; assay: Restraint-stress-induced c-Fos activation (ELISA); details: 3 mg/kg IP 30 min before 20 min restraint, 3 mg/kg
Description: Thirty min later, rats were restrained in a rigid plastic flat-bottom restraint tube (Braintree Scientific, Inc.; Braintree, MA, USA) for 20 min. After the 20 min stress period, rats were moved to a new cage and housed individually. Rats were sacrificed 2 h after stress onset. […] Immediately after sacrifice, brains were removed, the medial prefrontal cortex (mPFC), a brain area implicated in the pathophysiology of depression, was dissected from both hemispheres and frozen in 1.5 ml centrifuge tubes in dry ice, and stored at −80°C for later analysis.
Frozen mPFC tissues were removed from the −80°C freezer and placed on ice. Tissue was homogenized with a dounce homogenizer. The nuclear extract was prepared from the homogenized samples as per manufacturer's instructions using a CHEMICON ®Nuclear Extraction Kit (Millipore; Billerica, MA, USA). Protein concentrations were determined in the nuclear extracts using the Pierce BCA Protein Assay kit (Pierce Biotechnology, Inc., Rockford, IL, USA). Nuclear fractions were then assayed for Fos protein levels using the Pierce c-Fos Transcription Factor Kit (Pierce Biotechnology, Inc., Rockford, IL, USA), according to the manufacturer's instructions. […] Data were analyzed and plotted using GraphPad Prism (GraphPad Software, Inc.; La Jolla, CA, USA).

Sprague–Dawley rats = assay: DRL 72-s schedule of reinforcement in rats; format: in vivo, rat; details: for Lever Presses Mean / Reinforcers Mean: HSD rats DRL-72-s, raw data
Text: Each chamber was enclosed in a melamine sound-attenuating cubicle. A white noise generator provided masking noise. The interior of each chamber consisted of three levers mounted on one wall with a house light mounted on the opposite wall. The house light was turned on at initiation of each test session and was turned off at the termination of each session. A water access port was situated next to the lever in the middle of the wall, wherein a reinforced response caused a clicker apparatus to sound paired with a dipper (0.02-ml cup) to be lifted from a water trough to an opening in the floor of the access port for 4 s.
Rats were initially trained under an alternative fixed ratio 1 water reinforcement schedule with a fixed 1-min time schedule for automatic reinforcement. Thus, each response was reinforced, with water also provided every minute in the absence of a response. […] Following acquisition of lever-pressing behavior, rats were trained daily on DRL 18-s sessions for ~2 weeks, following which they were advanced to DRL 72-s sessions. Responding on these sessions became stable after ~8 weeks. Experimental test sessions lasted for 1 h and were conducted 5 days/week during light hours.
(§1) Drugs were administered to the animals once or twice weekly with at least 1 week between subsequent drugs to minimize possible carryover effects. Drug treatments were administered on Tuesdays and Fridays. No treatments were administered on other test days. Wednesdays were control days. “Control” behavior was calculated as the pooled mean lever presses or reinforcers received during Wednesday sessions across all Wednesdays for the duration of each study. Performance was normalized to percent of control by dividing total responses (or reinforcers) for each drug or vehicle treatment by the mean number of responses (reinforcers) in the respective pooled control condition, multiplied by 100.
(§2) The data analyses were conducted on the raw response and reinforcement data. All behavioral data are expressed as the mean ± s.e.m. normalized to the control condition.

C57Bl/6 mice = assay: DRL 36-s schedule of reinforcement in wild-type mice; format: in vivo, mouse; details: for Lever Presses Mean / Reinforcers Mean: WT mice DRL-36-s, raw data
Text: (§3) The levers in these chambers were mounted on one wall with an adjacent food magazine next to the lever in the middle of the wall. A reinforced response caused a clicker apparatus to activate and the pellet feeder to deposit one 45-mg sucrose pellet (BioServ, Frenchtown, NJ) into the food magazine. The house light, which was mounted on the ceiling, was turned on when the session began, remained on throughout the entire session, and was turned off at the end of the session. Each experimental chamber was enclosed in a melamine sound-attenuating cubicle and equipped with a white noise generator to provide masking noise.
(§4) Each mouse was initially trained under a variable time 60-s operant schedule for 5 days, followed by fixed ratio-1 ratio schedule for 5 days. After the mice had acquired lever-pressing behavior, they were trained during daily DRL 6-s sessions for ~1 week, then mice progressed through weekly ascending DRL requirements (12, 18, 24, 30 s) before moving to DRL 36-s sessions. […] Experimental sessions lasted for 45 min and were conducted 5 days/week during light hours.
as §1, §2

[2] = tested on: mice lacking OX1 receptors; assay: DRL 36-s schedule of reinforcement in OX1 KO mice; format: in vivo, mouse; details: for Lever Presses Mean / Reinforcers Mean: OX1 KO mice DRL-36-s, raw data; for Lever presses emitted / Reinforcers received: DRL-36-s
Text: (§5) Rats were acclimated to housing conditions for 4 days, followed by sham dosing once daily for 3 days, prior to the experiment. For DRL experiments, male Sprague–Dawley rats weighing between 300 and 350 g at the beginning of the behavioral experiments (Holtzman, Madison, WI) were housed in pairs. For mouse DRL studies, male C57Bl/6 mice (Taconic Farms, Hudson, NY) or mice lacking either OX1 or OX2 receptors, around 8 weeks of age, were obtained from private breeding colonies at Taconic Farms (Hudson, NY). OX1 and OX2 receptor knockout mice were generated using in vitro fertilization of embryos in C57Bl/6 female mice with sperm harvested from male mice obtained from the University of Texas Southwestern Medical Center (Dallas, TX), and backcrossed for at least 10 generations. Mice and rats were housed in separate colony rooms, which were maintained at 22°C and 60% relative humidity. For rat DRL experiments, water was available for a 20-min period following the daily behavioral session. Based on recommendations from the animal care and use committee, the mouse DRL assay was developed using food deprivation rather than water deprivation. […] All experiments were conducted during the light cycle and in compliance with the Guide for the Care and Use of Laboratory Animals under protocols approved by a local animal care and use committee.
as §3, §4, §1, §2

[3] = tested on: mice lacking OX2 receptors; assay: DRL 36-s schedule of reinforcement in OX2 KO mice; format: in vivo, mouse; details: for Lever Presses Mean / Reinforcers Mean: OX2 KO mice DRL-36-s, raw data; for Lever presses emitted / Reinforcers received: mice lacking OX2 receptors, DRL-36-s
Text: as §5, §3, §4, §1, §2

[4] = mice lacking OX1 receptors, 20 mg/kg
[5] = 10 mg/kg, positive control in the SB334867 experiment
[6] = rats DRL-72-s, 10 mg/kg, normalized to control days
[7] = rats DRL-72-s, 10 mg/kg, positive control in the SB334867 experiment
[8] = mice lacking OX1 receptors, 15 mg/kg

Cc1nnc2n1-c1ccc(Cl)cc1C(c1ccccc1)=NC2 [alprazolam]
Effect on restraint stress-induced increase in c-fos expression in prefrontal cortex [1]: attenuated; also recorded: blocked

Cc1nc2ccc(NC(=O)Nc3ccnc4cccnc34)cc2o1 [SB334867]
Lever Presses Mean (Sprague–Dawley rats; dose 3 mg/kg): 76.57 | Reinforcers Mean (Sprague–Dawley rats; dose 3 mg/kg): 11.00 | Lever Presses Mean (Sprague–Dawley rats; dose 10 mg/kg): 70.71 | Reinforcers Mean (Sprague–Dawley rats; dose 10 mg/kg): 12.43 | Lever Presses Mean (Sprague–Dawley rats; dose 30 mg/kg IP): 71.86 | Reinforcers Mean (Sprague–Dawley rats; dose 30 mg/kg IP): 11.00 | Change in reinforcers received or total lever presses made, in words (Sprague–Dawley rats; rats DRL-72-s, doses up to 30 mg/kg): did not produce a significant change | Effect on lever presses emitted or reinforcers received, in words (C57Bl/6 mice; C57Bl/6 mice DRL-36-s, up to 40 mg/kg): did not significantly affect | Lever Presses Mean (C57Bl/6 mice; dose 3 mg/kg): 162.86 | Reinforcers Mean (C57Bl/6 mice; dose 3 mg/kg): 17.14 | Lever Presses Mean (C57Bl/6 mice; dose 10 mg/kg): 157.57 | Reinforcers Mean (C57Bl/6 mice; dose 10 mg/kg): 16.14 | Lever Presses Mean (C57Bl/6 mice; dose 20 mg/kg): 148.57 | Reinforcers Mean (C57Bl/6 mice; dose 20 mg/kg): 18.43 | Lever Presses Mean (C57Bl/6 mice; dose 40 mg/kg): 87.67 | Reinforcers Mean (C57Bl/6 mice; dose 40 mg/kg): 22.33 | Lever Presses Mean ([2]; dose 1 mg/kg): 209.75 | Reinforcers Mean ([2]; dose 1 mg/kg): 15.00 | Lever Presses Mean ([2]; dose 3 mg/kg): 169.00 | Reinforcers Mean ([2]; dose 3 mg/kg): 23.88 | Lever Presses Mean ([2]; dose 10 mg/kg): 163.63 | Reinforcers Mean ([2]; dose 10 mg/kg): 22.88 | Lever Presses Mean ([2]; dose 20 mg/kg): 141.88 | Reinforcers Mean ([2]; dose 20 mg/kg): 28.75 | Lever Presses Mean ([2]; dose 40 mg/kg): 68.13 | Reinforcers Mean ([2]; dose 40 mg/kg): 21.38 | Lever presses emitted [2, 4]: 75 % of control | Reinforcers received [2, 4]: 166 % of control | Lever presses emitted ([2]; mice lacking OX1 receptors, 40 mg/kg): 35 % of control | Reinforcers received ([2]; mice lacking OX1 receptors, 40 mg/kg, not significant): 123% | Lever Presses Mean ([3]; dose 1 mg/kg): 175.50 | Reinforcers Mean ([3]; dose 1 mg/kg): 19.50 | Lever Presses Mean ([3]; dose 3 mg/kg): 155.75 | Reinforcers Mean ([3]; dose 3 mg/kg): 21.50 | Lever Presses Mean ([3]; dose 10 mg/kg): 167.75 | Reinforcers Mean ([3]; dose 10 mg/kg): 22.75 | Lever Presses Mean ([3]; dose 20 mg/kg): 149.50 | Reinforcers Mean ([3]; dose 20 mg/kg): 26.25 | Lever Presses Mean ([3]; dose 40 mg/kg): 27.38 | Reinforcers Mean ([3]; dose 40 mg/kg): 17.50 | Lever presses emitted ([3]; 40 mg/kg): less than 20 % of control | Reinforcers received ([3]; 40 mg/kg): 75 % of control

CN(C)CCCN1c2ccccc2CCc2ccccc21 [imipramine]
Lever Presses Mean (Sprague–Dawley rats; 10 mg/kg, positive control in the LSN2424100 experiment): 55.71 | Lever Presses Mean (Sprague–Dawley rats; [5]): 49.00 | Reinforcers Mean (Sprague–Dawley rats; [5]): 18.57 | Lever Presses Mean (Sprague–Dawley rats; dose 1 mg/kg): 77.50 | Reinforcers Mean (Sprague–Dawley rats; dose 1 mg/kg): 9.92 | Lever Presses Mean (Sprague–Dawley rats; dose 3 mg/kg): 68.42 | Reinforcers Mean (Sprague–Dawley rats; dose 3 mg/kg): 15.17 | Lever Presses Mean (Sprague–Dawley rats; dose 10 mg/kg): 46.17 | Reinforcers Mean (Sprague–Dawley rats; dose 10 mg/kg): 20.33 | Reinforcers received (Sprague–Dawley rats; [6]): 210 % of control | Total lever presses emitted (Sprague–Dawley rats; [6]): 51 % of control | Lever presses (Sprague–Dawley rats; [7]): 64 % of control | Reinforcers received (Sprague–Dawley rats; [7]): 160 % of control | Effect on DRL behavior (lever presses, reinforcers), in words (Sprague–Dawley rats; rats DRL-72-s, doses of 1 and 3 mg/kg): no significant effect on behavior | Lever Presses Mean ([2]; dose 3 mg/kg): 177.63 | Lever Presses Mean ([2]; dose 10 mg/kg): 174.13 | Reinforcers Mean ([2]; dose 10 mg/kg): 24.25 | Lever Presses Mean ([2]; dose 15 mg/kg): 128.50 | Reinforcers Mean ([2]; dose 15 mg/kg): 31.13 | Lever presses emitted [2, 8]: 63 % of control | Reinforcers received [2, 8]: 206 % of control | Effect on lever pressing, in words ([2]; mice lacking OX1 receptors, doses lower than 15 mg/kg): did not affect lever pressing | Lever Presses Mean ([3]; dose 10 mg/kg): 165.25 | Reinforcers Mean ([3]; dose 10 mg/kg): 27.88 | Lever Presses Mean ([3]; dose 15 mg/kg): 116.88 | Reinforcers Mean ([3]; dose 15 mg/kg): 33.00 | Lever presses emitted ([3]; 15 mg/kg): 70 % of control | Reinforcers received ([3]; 15 mg/kg): 140 % of control

— publication PMC3904085 (Frontiers in Neuroscience, 2014)
